# Target: T1, human VR1 (Homo sapiens, UniProt Q8NER1)
# T1 construct: expressed in transfected cells
# Assay: capsaicin-induced Ca2+ influx in the human VR1-transfected CHO cell line (Assay 1)
# Format: cell-based
# Details: 10 nM capsaicin, human VR1-CHOluc9aeq cells; read-out: In vitro activity class
# Text: [Measurement of capsaicin-induced Ca^2+ influx in the human VR1-transfected CHO cell line] (Assay 1)
# • (1) Establishment of the Human VR1-CHOluc9aeq Cell Line • Human vanilloid receptor (hVR1) cDNA was cloned from libraries of axotomized dorsal root ganglia (WO 00/29577). The cloned hVR1 cDNA was constructed with pcDNA3 vector and transfected into a CHOluc9aeq cell line. The cell line contains aequorin and CRE-luciferase reporter genes as read-out signals. The transfectants were cloned by limiting dilution in selection medium (DMEM/F12 medium (Gibco BRL) supplemented with 10% FCS, 1.4 mM Sodium pyruvate, 20 mM HEPES, 0.15% Sodium bicarbonate, 100 U/ml penicillin, 100 μg/ml streptomycin, 2 mM glutamine, non-essential amino acids and 2 mg/ml G418). Ca^2+ influx was examined in the capsaicin-stimulated clones. A high responder clone was selected and used for further experiments in the project. The human VR1-CHOluc9aeq cells were maintained in the selection medium and passaged every 3-4 days at 1-2.5×10^5 cells/flask ([…]). • (2) Measurement of Ca^2+ Influx Using FDSS-3000 • Human VR1-CHOluc9aeq cells were suspended in a culture medium which is the same as the selection medium except for G418 and seeded at a density of 1,000 cells per well into 384-well plates (black walled clear-base/Nalge Nunc International). Following the culture for 48 hrs the medium was changed to 2 μM Fluo-3 AM (Molecular Probes) and 0.02% Puronic F-127 in assay buffer (Hank's balanced salt solution (HBSS), 17 mM HEPES (pH7.4), 1 mM Probenecid, 0.1% BSA) and the cells were incubated for 60 min at. 25° C. After washing twice with assay buffer the cells were incubated with a test compound or vehicle for 20 min at 25° C. Mobilization of cytoplasmic Ca^2+ was measured by FDSS-3000 (λex=488 nm, λem=540 nm/Hamamatsu Photonics) for 60 sec after the stimulation with 10 nM capsaicin. Integral R was calculated and compared with controls. [Measurement of the Capsaicin-Induced Ca^2+ Influx in Primary Cultured Rat Dorsal Root Ganglia Neurons] (Assay 2) • (1) Preparation of Rat Dorsal Root Ganglia Neurons • New born Wister rats (5-11 days) were sacrificed and dorsal root ganglia (DRG) was removed. DRG was incubated with 0.1% trypsin (Gibco BRL) in PBS(−) (Gibco BRL) for 30 min at 37° C., then a half volume of fetal calf serum (FCS) was added and the cells were spun down. The DRG neuron cells were resuspended in Ham F12/5% FCS/5% horse serum (Gibco BRL) and dispersed by repeated pipetting and passing through 70 μm mesh Falcon). The culture plate was incubated for 3 hours at 37° C. to remove contaminating Schwann cells. Non-adherent cells were recovered and further cultured in laminin-coated 384 well plates (Nunc) at 1×10^4 cells/50 μl/well for 2 days in the presence of 50 ng/ml recombinant rat NGF (Sigma) and 50 μM 5-fluorodeoxyuridine (Sigma). • (2) Ca^2+ Mobilization Assay • DRG neuron cells were washed twice with HBSS supplemented with 17 mM HEPES (pH 7.4) and 0.1% BSA. After incubating with 2 μM fluo-3AM (Molecular Probe), 0.02% PF127 (Gibco BRL) and 1 mM probenecid (Sigma) for 40 min at 37° C., cells were washed 3 times. The cells were incubated with VR1 antagonists or vehicle (dimethylsulphoxide) and then with 1 μM capsaicin in FDSS-6000 (λex=480 nm, λem=520 nm/Hamamatsu Photonics). The fluorescence changes at 480 nm were monitored for 2.5 min. Integral R was calculated and compared with controls. [Organ Bath Assay to Measure the Capsaicin-Induced Bladder Contraction] (Assay 3)
# The data corresponds to the compounds as yielded by solid phase synthesis and thus to levels of purity of about 40 to 90%. For practical reasons, the compounds are grouped in four classes of activity as follows: IC50=A(<or=)0.1 μM<B(<or=)0.5 μM<C(<or=)1 μM<D
# T1 sequence (Q8NER1 whole entry): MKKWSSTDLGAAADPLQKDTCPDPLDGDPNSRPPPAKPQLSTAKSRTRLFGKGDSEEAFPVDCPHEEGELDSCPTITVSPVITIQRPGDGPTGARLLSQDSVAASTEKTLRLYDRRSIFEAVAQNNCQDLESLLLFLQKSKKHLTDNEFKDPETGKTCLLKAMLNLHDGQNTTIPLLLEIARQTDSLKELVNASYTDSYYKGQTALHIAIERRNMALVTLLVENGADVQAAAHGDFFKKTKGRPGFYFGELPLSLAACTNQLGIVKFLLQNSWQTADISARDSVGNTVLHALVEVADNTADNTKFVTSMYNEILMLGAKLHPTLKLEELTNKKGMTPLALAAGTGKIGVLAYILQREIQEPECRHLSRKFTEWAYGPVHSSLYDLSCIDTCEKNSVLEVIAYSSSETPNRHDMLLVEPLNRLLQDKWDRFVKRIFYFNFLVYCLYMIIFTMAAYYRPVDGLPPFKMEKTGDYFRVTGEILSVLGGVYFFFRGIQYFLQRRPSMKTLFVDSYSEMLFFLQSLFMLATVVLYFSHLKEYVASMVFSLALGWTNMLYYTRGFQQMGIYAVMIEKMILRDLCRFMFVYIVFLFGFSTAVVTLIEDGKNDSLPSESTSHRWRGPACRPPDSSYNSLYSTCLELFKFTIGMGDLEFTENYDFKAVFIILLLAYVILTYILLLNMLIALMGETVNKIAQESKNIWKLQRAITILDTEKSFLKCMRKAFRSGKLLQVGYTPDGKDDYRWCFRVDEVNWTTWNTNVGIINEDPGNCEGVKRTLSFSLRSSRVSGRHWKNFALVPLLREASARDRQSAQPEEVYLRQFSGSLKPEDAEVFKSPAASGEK
row,IC50,Compound
1,0.5 to 1 µM,"O=C(Nc1ccccc1)Nc1cccc2c1CC(O)CC2 (centres unmarked) [Example 2-1, N-phenyl-N′-(7-hydroxy-5,6,7,8-tetrahydro-1-naphthalenyl) urea]"
2,< 0.1 µM,"O=C(NCc1ccc(OC(F)(F)F)cc1)Nc1cccc2c1CC(O)CC2 (centres unmarked) [Example 4-1, N-(7-hydroxy-5,6,7,8-tetrahydro-naphthalen-1-yl)-N′-(4-trifluoromethoxy-benzyl)-urea]"
3,< 0.1 µM,"O=C(NCc1ccc(OC(F)(F)F)cc1)Nc1cccc2c1C[C@H](O)CC2 [Example 4-2, N-{(R)-7-hydroxy-5,6,7,8-tetrahydro-naphthalen-1-yl}-N′-(4-trifluoromethoxy-benzyl)-urea]"
4,< 0.1 µM,"O=C(NCc1ccc(OC(F)(F)F)cc1)Nc1cccc2c1C[C@@H](O)CC2 [Example 4-3, N-{(S)-7-hydroxy-5,6,7,8-tetrahydro-naphthalen-1-yl}-N′-(4-trifluoromethoxy-benzyl)-urea]"

# Same assay, conditions: Table 1; 10 nM capsaicin, human VR1-CHOluc9aeq cells; read-out: activity class
row,IC50,Compound
1,< 0.1 µM,COc1cc(NC(=O)Nc2cccc3c2CC(O)CC3)cc(OC)c1 (centres unmarked) [Example 2-37]
2,< 0.1 µM,Cc1cc(NC(=O)Nc2cccc3c2CC(O)CC3)ccc1Cl (centres unmarked) [Example 2-36]

# Same assay, conditions: Table 2; 10 nM capsaicin, human VR1-CHOluc9aeq cells; read-out: activity class
row,IC50,Compound
1,0.1 to 0.5 µM,CC(C)(NC(=O)Nc1cccc2c1CC(O)CC2)c1ccc(Cl)cc1 (centres unmarked) [Example 4-44]
2,0.1 to 0.5 µM,CCOC(=O)Cc1ccc(NC(=O)Nc2cccc3c2CC(O)CC3)cc1 (centres unmarked) [Example 4-33]
3,< 0.1 µM,O=C(Nc1ccc(OC(F)(F)F)cc1)Nc1cccc2c1CC(O)CC2 (centres unmarked) [Example 4-40]
4,0.1 to 0.5 µM,N#CCc1ccc(NC(=O)Nc2cccc3c2CC(O)CC3)cc1 (centres unmarked) [Example 4-47]
5,< 0.1 µM,CC(C)(C)c1ccc(CNC(=O)Nc2cccc3c2CC(O)CC3)cc1 (centres unmarked) [Example 4-16]
6,< 0.1 µM,O=C(NCc1ccc(C(F)(F)F)cc1)Nc1cccc2c1CC(O)CC2 (centres unmarked) [Example 4-8]

# Second part, the compound before the results:
row,Compound,IC50
1,Cc1ccc(Oc2ccc(NC(=O)Nc3cccc4c3CC(O)CC4)cc2)cc1 (centres unmarked) [Example 4-38],< 0.1 µM
2,O=C(NCc1cccc(C(F)(F)F)c1)Nc1cccc2c1CC(O)CC2 (centres unmarked) [Example 4-10],< 0.1 µM
3,O=C(NCc1ccc(Cl)cc1)Nc1cccc2c1CC(O)CC2 (centres unmarked) [Example 4-9],< 0.1 µM
4,COc1cc(OC)c(CNC(=O)Nc2cccc3c2CC(O)CC3)c(OC)c1 (centres unmarked) [Example 4-23],0.5 to 1 µM
5,Nc1ccc(CNC(=O)Nc2cccc3c2CC(O)CC3)cc1 (centres unmarked) [Example 4-31],0.5 to 1 µM
6,O=C(NCc1ccc([N+](=O)[O-])cc1)Nc1cccc2c1CC(O)CC2 (centres unmarked) [Example 4-25],< 0.1 µM
7,O=C(NCc1cc(C(F)(F)F)cc(C(F)(F)F)c1)Nc1cccc2c1CC(O)CC2 (centres unmarked) [Example 4-26],< 0.1 µM
8,O=C(NCCc1ccc(Cl)cc1)Nc1cccc2c1C[C@H](O)CC2 [Example 4-53],< 0.1 µM
9,O=C(NCCc1ccc(Cl)cc1)Nc1cccc2c1C[C@@H](O)CC2 [Example 4-54],< 0.1 µM
10,CC(NC(=O)Nc1cccc2c1CC(O)CC2)c1ccccc1 (centres unmarked) [Example 4-48],0.1 to 0.5 µM
11,COc1ccc(CNC(=O)Nc2cccc3c2CC(O)CC3)cc1OC (centres unmarked) [Example 4-27],0.5 to 1 µM
12,O=C(NCc1c(F)cccc1F)Nc1cccc2c1CC(O)CC2 (centres unmarked) [Example 4-28],0.5 to 1 µM
13,O=C(NCc1cccc(OC(F)(F)F)c1)Nc1cccc2c1CC(O)CC2 (centres unmarked) [Example 4-29],< 0.1 µM
14,O=C(Nc1ccc(Oc2ccc(Cl)cc2)cc1)Nc1cccc2c1CC(O)CC2 (centres unmarked) [Example 4-39],< 0.1 µM
15,O=C(NCCc1ccc(Cl)cc1)Nc1cccc2c1CC(O)CC2 (centres unmarked) [Example 4-36],< 0.1 µM
16,O=C(NCc1cccc2ccccc12)Nc1cccc2c1CC(O)CC2 (centres unmarked) [Example 4-46],< 0.1 µM
17,O=C(NCc1ccc(Cl)c(Cl)c1)Nc1cccc2c1CC(O)CC2 (centres unmarked) [Example 4-18],< 0.1 µM

row,Compound,IC50
1,CN(C)c1ccc(CNC(=O)Nc2cccc3c2CC(O)CC3)cc1 (centres unmarked) [Example 4-34],< 0.1 µM
2,O=C(NCc1ccc(Cl)cc1Cl)Nc1cccc2c1CC(O)CC2 (centres unmarked) [Example 4-15],< 0.1 µM
3,NS(=O)(=O)c1ccc(CNC(=O)Nc2cccc3c2CC(O)CC3)cc1 (centres unmarked) [Example 4-50],0.5 to 1 µM
4,COC(=O)c1ccc(CNC(=O)Nc2cccc3c2CC(O)CC3)cc1 (centres unmarked) [Example 4-22],< 0.1 µM
5,Nc1ccccc1CNC(=O)Nc1cccc2c1CC(O)CC2 (centres unmarked) [Example 4-32],0.5 to 1 µM
6,COc1cccc(CNC(=O)Nc2cccc3c2CC(O)CC3)c1 (centres unmarked) [Example 4-13],0.1 to 0.5 µM
7,O=C(NCc1ccc(C(F)(F)F)c(F)c1)Nc1cccc2c1CC(O)CC2 (centres unmarked) [Example 4-37],< 0.1 µM
8,O=C(NCc1cccc(Cl)c1)Nc1cccc2c1CC(O)CC2 (centres unmarked) [Example 4-14],< 0.1 µM
9,O=C(NCc1ccc(Br)cc1)Nc1cccc2c1CC(O)CC2 (centres unmarked) [Example 4-7],< 0.1 µM
10,O=C(NCc1ccccc1C(F)(F)F)Nc1cccc2c1CC(O)CC2 (centres unmarked) [Example 4-19],< 0.1 µM
11,O=C(Nc1cccc2c1CC(O)CC2)NC(c1ccccc1)c1ccccc1 (centres unmarked) [Example 4-43],0.5 to 1 µM
12,COc1ccccc1CNC(=O)Nc1cccc2c1CC(O)CC2 (centres unmarked) [Example 4-11],0.1 to 0.5 µM
13,O=C(NCc1ccc(Cl)c(C(F)(F)F)c1)Nc1cccc2c1CC(O)CC2 (centres unmarked) [Example 4-35],< 0.1 µM
14,O=C(NCc1ccccc1)Nc1cccc2c1CC(O)CC2 (centres unmarked) [Example 4-6],0.1 to 0.5 µM
15,COc1ccc(CNC(=O)Nc2cccc3c2CC(O)CC3)c(OC)c1 (centres unmarked) [Example 4-20],0.1 to 0.5 µM
16,O=C(NCc1ccc(C(=O)O)cc1)Nc1cccc2c1CC(O)CC2 (centres unmarked) [Example 4-30],0.5 to 1 µM
17,CC(NC(=O)Nc1cccc2c1CC(O)CC2)c1cccc2ccccc12 (centres unmarked) [Example 4-49],< 0.1 µM

# Same assay, conditions: Table 3; 10 nM capsaicin, human VR1-CHOluc9aeq cells; read-out: activity class
row,IC50,Compound
1,0.5 to 1 µM,COc1ccc(NC(=O)Nc2cccc3c2CC(O)CC3)cc1O (centres unmarked) [Example 5-15]
2,< 0.1 µM,Cc1ccc(NC(=O)Nc2cccc3c2CC(O)CC3)cc1C (centres unmarked) [Example 5-22]
3,< 0.1 µM,O=C(Nc1cccc(Br)c1)Nc1cccc2c1CC(O)CC2 (centres unmarked) [Example 5-5]
4,0.1 to 0.5 µM,COc1ccc(NC(=O)Nc2cccc3c2CC(O)CC3)cc1OC (centres unmarked) [Example 5-18]
5,< 0.1 µM,CCOc1ccc(NC(=O)Nc2cccc3c2CC(O)CC3)cc1 (centres unmarked) [Example 5-14]
6,0.1 to 0.5 µM,CSc1ccc(NC(=O)Nc2cccc3c2CC(O)CC3)cc1 (centres unmarked) [Example 5-16]
7,< 0.1 µM,Cc1cc(C)cc(NC(=O)Nc2cccc3c2CC(O)CC3)c1 (centres unmarked) [Example 5-21]
8,< 0.1 µM,CCc1cccc(NC(=O)Nc2cccc3c2CC(O)CC3)c1 (centres unmarked) [Example 5-23]
9,< 0.1 µM,CC(C)(C)c1ccc(NC(=O)Nc2cccc3c2CC(O)CC3)cc1 (centres unmarked) [Example 5-9]
10,0.1 to 0.5 µM,Cc1ccc(NC(=O)Nc2cccc3c2CC(O)CC3)cc1 (centres unmarked) [Example 5-7]
11,0.5 to 1 µM,O=C(Nc1ccc(O)cc1)Nc1cccc2c1CC(O)CC2 (centres unmarked) [Example 5-20]
12,< 0.1 µM,COc1ccc(NC(=O)Nc2cccc3c2CC(O)CC3)cc1Cl (centres unmarked) [Example 5-19]
13,< 0.1 µM,COc1ccc(NC(=O)Nc2cccc3c2CC(O)CC3)cc1F (centres unmarked) [Example 5-17]
14,< 0.1 µM,CC(C)c1cccc(NC(=O)Nc2cccc3c2CC(O)CC3)c1 (centres unmarked) [Example 5-8]

# Further lines, the compound ahead of its results:
row,Compound,IC50
1,O=C(Nc1ccccc1F)Nc1cccc2c1CC(O)CC2 (centres unmarked) [Example 5-2],0.5 to 1 µM
2,COc1cc(NC(=O)Nc2cccc3c2CC(O)CC3)cc(C(F)(F)F)c1 (centres unmarked) [Example 5-12],< 0.1 µM

# Source: US7612113B2, “Hydroxy tetrahydro-naphthalenylurea derivatives” (Xention Limited, priority 2002, dated 2009)
